What was measured:
Experiment in all cases: biochemical
Parameters in all cases: species or system HEK293/K-562/placenta mixed human extract; Kinobeads chemoproteomic competition binding, quantified by TMT LC-MS/MS, dose response up to 20 uM
[1] = target: TLK2 (Homo sapiens, UniProt Q86UE8)
[2] = target: EPHB2 (Homo sapiens, UniProt P29323)
[3] = target: PKN2 (Homo sapiens, UniProt Q16513)
[4] = target: TNK1 (Homo sapiens, UniProt Q13470)
[5] = target: TAOK3 (Homo sapiens, UniProt Q9H2K8)
[6] = target: JAK3 (Homo sapiens, UniProt P52333)
[7] = target: MAPKAPK5 (Homo sapiens, UniProt Q8IW41)
[8] = target: IRAK3 (Homo sapiens, UniProt Q9Y616)
[9] = target: TAOK1 (Homo sapiens, UniProt Q7L7X3)
[10] = target: ACVR1B (Homo sapiens, UniProt P36896)
[11] = target: BTK (Homo sapiens, UniProt Q06187)
[12] = target: AURKB (Homo sapiens, UniProt Q96GD4)
[13] = target: PRKCD (Homo sapiens, UniProt Q05655)
[14] = target: CDC37 (Homo sapiens, UniProt Q16543)
[15] = target: NEK2 (Homo sapiens, UniProt P51955)
[16] = target: HIPK3 (Homo sapiens, UniProt Q9H422)
[17] = target: MAPK8 (Homo sapiens, UniProt P45983)
[18] = target: MAP4K5 (Homo sapiens, UniProt Q9Y4K4)
[19] = target: MARK2 (Homo sapiens, UniProt Q7KZI7)
[20] = target: CSNK2A1 (Homo sapiens, UniProt P68400)
[21] = target: TP53RK (Homo sapiens, UniProt Q96S44)

Chain of JAK3 (P52333 whole entry): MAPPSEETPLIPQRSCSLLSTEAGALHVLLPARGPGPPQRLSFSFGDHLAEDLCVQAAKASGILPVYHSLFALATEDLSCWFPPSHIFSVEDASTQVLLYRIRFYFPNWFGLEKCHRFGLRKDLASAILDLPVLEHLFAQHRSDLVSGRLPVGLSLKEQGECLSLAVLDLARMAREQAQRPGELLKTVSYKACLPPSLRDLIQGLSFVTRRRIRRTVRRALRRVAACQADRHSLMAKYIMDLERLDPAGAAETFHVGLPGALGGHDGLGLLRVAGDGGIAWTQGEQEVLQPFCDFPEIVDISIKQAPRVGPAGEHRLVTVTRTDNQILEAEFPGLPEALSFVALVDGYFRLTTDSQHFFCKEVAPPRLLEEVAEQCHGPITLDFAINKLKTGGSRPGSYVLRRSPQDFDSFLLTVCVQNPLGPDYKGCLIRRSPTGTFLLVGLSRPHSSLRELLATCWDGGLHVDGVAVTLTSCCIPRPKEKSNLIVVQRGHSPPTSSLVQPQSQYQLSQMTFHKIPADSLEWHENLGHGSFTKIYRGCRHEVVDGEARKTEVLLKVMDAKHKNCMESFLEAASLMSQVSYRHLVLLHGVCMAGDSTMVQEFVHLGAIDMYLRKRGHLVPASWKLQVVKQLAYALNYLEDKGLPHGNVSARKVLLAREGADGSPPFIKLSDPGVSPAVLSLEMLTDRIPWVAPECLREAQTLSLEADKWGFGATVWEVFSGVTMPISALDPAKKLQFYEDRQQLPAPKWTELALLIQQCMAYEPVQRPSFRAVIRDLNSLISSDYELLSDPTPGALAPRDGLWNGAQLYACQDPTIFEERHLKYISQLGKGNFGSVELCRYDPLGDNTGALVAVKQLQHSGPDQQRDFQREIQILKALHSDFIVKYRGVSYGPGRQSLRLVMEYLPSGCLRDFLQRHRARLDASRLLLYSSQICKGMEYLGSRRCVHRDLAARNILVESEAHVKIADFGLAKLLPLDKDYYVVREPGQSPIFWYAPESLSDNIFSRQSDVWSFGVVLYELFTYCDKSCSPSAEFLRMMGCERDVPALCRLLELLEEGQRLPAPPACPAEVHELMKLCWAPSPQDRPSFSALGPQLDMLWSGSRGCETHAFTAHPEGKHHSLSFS
Chain of MAPKAPK5 (Q8IW41 whole entry): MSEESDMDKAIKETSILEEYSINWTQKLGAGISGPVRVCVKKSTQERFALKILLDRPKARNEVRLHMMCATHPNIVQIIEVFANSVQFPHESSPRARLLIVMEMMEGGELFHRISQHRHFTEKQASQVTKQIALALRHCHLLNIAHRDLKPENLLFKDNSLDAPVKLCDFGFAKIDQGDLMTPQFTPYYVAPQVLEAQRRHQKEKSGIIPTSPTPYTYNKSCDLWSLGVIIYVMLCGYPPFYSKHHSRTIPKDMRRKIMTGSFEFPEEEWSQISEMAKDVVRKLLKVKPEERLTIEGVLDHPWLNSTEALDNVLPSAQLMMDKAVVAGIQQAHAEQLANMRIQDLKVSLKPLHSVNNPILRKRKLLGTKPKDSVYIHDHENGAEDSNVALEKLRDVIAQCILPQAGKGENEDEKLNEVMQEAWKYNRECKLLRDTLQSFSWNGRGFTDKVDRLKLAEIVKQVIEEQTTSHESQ
Chain of CSNK2A1 (P68400 whole entry): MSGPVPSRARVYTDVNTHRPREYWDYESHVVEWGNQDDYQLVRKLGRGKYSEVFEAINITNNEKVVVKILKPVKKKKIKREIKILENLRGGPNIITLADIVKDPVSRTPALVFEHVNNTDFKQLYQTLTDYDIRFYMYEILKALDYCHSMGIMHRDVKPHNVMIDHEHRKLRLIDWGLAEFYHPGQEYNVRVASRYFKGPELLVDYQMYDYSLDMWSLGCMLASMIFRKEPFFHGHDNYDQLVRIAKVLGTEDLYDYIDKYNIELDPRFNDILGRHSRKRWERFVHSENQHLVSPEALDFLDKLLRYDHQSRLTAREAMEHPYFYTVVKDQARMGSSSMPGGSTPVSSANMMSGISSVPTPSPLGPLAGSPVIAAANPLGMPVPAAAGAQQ
Chain of MAP4K5 (Q9Y4K4 whole entry): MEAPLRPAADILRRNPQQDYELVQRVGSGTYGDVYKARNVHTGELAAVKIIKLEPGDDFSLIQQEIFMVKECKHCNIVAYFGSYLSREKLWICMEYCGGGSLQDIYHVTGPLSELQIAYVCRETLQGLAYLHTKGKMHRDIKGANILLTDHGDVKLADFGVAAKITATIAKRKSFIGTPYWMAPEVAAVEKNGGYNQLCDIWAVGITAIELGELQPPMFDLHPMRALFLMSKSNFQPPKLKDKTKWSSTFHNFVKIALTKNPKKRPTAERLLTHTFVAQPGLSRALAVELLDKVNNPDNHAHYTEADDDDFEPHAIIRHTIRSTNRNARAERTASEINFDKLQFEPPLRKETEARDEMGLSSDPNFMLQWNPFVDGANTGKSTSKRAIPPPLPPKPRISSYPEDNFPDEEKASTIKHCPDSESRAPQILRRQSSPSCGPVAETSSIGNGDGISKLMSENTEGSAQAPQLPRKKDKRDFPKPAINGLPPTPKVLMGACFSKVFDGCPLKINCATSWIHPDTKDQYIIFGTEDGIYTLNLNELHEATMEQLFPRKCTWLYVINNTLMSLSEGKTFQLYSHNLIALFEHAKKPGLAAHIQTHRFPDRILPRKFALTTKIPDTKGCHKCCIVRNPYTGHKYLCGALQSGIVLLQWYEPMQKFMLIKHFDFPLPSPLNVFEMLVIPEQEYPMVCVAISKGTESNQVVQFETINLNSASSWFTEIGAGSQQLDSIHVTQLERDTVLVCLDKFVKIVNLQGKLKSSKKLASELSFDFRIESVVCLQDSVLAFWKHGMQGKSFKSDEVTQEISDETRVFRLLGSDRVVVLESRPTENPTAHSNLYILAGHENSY
Chain of AURKB (Q96GD4 whole entry): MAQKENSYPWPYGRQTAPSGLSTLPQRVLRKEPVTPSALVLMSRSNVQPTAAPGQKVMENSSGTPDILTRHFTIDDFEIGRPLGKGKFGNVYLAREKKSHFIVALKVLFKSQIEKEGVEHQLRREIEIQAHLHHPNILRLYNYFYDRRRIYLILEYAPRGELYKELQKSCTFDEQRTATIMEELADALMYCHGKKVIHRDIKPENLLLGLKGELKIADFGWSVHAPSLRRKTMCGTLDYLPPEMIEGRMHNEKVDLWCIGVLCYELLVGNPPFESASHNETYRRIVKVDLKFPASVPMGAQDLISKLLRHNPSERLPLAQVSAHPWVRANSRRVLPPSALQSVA
Chain of TAOK3 (Q9H2K8 whole entry): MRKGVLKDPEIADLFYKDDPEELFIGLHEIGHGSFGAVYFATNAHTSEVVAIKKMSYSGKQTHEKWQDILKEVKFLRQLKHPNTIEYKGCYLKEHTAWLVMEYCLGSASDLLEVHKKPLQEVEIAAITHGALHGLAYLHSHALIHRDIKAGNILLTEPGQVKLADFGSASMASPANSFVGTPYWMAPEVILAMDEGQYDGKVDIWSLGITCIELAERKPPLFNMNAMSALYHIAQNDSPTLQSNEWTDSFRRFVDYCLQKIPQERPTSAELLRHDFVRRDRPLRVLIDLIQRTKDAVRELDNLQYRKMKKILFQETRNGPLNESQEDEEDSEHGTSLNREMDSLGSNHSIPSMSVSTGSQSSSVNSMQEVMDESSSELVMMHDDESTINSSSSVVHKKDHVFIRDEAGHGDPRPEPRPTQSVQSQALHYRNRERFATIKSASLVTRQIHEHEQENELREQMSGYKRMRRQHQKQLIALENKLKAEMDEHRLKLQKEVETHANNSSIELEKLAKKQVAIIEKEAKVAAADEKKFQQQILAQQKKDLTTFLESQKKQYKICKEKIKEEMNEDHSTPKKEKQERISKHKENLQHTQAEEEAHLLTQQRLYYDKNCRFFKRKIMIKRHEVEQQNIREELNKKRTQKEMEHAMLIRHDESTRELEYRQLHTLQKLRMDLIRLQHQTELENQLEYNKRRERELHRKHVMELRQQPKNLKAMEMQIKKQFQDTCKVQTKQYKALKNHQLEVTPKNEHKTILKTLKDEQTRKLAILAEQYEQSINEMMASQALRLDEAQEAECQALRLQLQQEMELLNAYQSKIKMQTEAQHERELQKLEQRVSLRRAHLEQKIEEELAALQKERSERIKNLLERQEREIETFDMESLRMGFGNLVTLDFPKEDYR
Chain of MAPK8 (P45983 whole entry): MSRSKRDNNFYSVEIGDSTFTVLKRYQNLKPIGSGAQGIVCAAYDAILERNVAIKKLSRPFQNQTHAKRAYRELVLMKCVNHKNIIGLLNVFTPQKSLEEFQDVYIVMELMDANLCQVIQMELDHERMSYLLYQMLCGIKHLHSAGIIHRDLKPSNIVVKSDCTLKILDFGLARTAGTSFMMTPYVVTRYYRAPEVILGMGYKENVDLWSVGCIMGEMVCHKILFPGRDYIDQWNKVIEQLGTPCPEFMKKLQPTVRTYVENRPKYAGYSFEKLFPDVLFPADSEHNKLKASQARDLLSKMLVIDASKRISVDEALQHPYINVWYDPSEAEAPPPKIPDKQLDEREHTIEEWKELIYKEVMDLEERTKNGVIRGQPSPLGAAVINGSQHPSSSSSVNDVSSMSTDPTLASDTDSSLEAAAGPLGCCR
Chain of ACVR1B (P36896 whole entry): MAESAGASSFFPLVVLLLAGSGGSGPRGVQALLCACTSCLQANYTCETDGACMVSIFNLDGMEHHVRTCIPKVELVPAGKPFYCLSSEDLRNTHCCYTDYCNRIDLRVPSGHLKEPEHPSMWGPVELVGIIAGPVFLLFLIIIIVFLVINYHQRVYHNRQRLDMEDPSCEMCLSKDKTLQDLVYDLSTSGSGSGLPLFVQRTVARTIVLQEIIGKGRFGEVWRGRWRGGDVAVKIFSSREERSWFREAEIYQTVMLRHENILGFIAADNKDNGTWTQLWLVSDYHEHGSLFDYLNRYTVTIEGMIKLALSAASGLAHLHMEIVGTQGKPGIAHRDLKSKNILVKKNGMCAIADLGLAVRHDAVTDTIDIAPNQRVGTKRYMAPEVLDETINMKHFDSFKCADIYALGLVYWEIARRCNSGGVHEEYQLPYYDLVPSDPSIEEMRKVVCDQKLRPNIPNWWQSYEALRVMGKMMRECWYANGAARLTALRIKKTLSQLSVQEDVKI

In the case of `COc1ccccc1-c1n[nH]c2nc(N[C@H]3CC[C@H](NS(=O)(=O)CCC(F)(F)F)CC3)nc(OC)c12` [compound 31, 3,3,3-Trifluoro-N-(trans-4-((4-methoxy-3-(2-methoxyphenyl)-1H-pyrazolo[3,4-d]pyrimidin-6-yl)amino)cyclohexyl)propane-1-sulfonamide], the IC50 [1] is reported as ≥ 20 µM, the IC50 [2] is reported as ≥ 20 µM and the IC50 [3] is reported as ≥ 20 µM. For the same compound, the IC50 [4] was ≥ 20 µM, the IC50 [5] was 0.93 µM and the IC50 [6] was ≥ 20 µM. The IC50 [7] was 3 µM, the IC50 [8] was ≥ 20 µM and the IC50 [9] was 1.5 µM. For the same compound, the IC50 [10] was ≥ 20 µM, the IC50 [11] was ≥ 20 µM and the IC50 [12] was ≥ 20 µM. The IC50 [13] was ≥ 20 µM, the IC50 [14] was ≥ 20 µM and the IC50 [15] was ≥ 20 µM. For the same compound, the IC50 [16] was ≥ 20 µM, the IC50 [17] was ≥ 20 µM and the IC50 [18] was ≥ 20 µM. The IC50 [19] was ≥ 20 µM, the IC50 [20] was ≥ 20 µM and the IC50 [21] was ≥ 20 µM.
